This test has as its system gastrischen Drüsenschläuche. Put plainly: 14C-aminopyrine accumulation in isolated gastric glands (inhibition of gastric acid secretion). The test is classed as cell-based, Kaninchen. To be noted: read-out: IC50 Inhibition der stimulierten AP-Akkumulation. The text has this: Methode: Die Hochdruckperfusion des […] wurde nach der Beschreibung von Berglindh und Obrink (1) und unter Anwendung einiger Modifikationen, wie sie an anderer Stelle berichtet werden (2), ausgeführt. Kaninchen (männlich und weiblich, 2 - 3 kg) wurden schmerzfrei unter Narkose durch zervikale Dislokation getötet und der Magen wie in der Literatur berichtet perfundiert (1). Die Mukosa des Magenfundus wurde mit einem Schaber entfernt und mittels einer Schere zerkleinert. Die so erhaltenen Mukosafragmente wurden mit_1 mg/ml Kollagenase in einem Medium bestehend aus 100 mM NaCl, 5 mM KCI, 0,5 mM NaH2PO4, 1 mM Na2HPO4, 1 mM CaCl2, 1,5 mM MgCl2, 20 mM NaHCO3, 20 mM HEPES, 2mg/ml Glukose und 1 mg/ml Kaninchenalbumin für 30 - 45 min bei 37°C behandelt, wobei der pH des Gemisches mit Tris-Puffer auf 7,4 eingestellt war. Die Drüsenschläuche (gastric glands) wurden durch ein Nylonnetz zur Entfernung grober Fragmente filtriert und 3 mal mit Inkubationsmedium gespült. Anschließend wurden die Drüsenschläuche im Medium in einer Konzentration von 2 - 4 mg Trockengewicht/ml suspendiert.
Als Maß für die Fähigkeit der gastrischen Drüsenschläuche zur Säurebildung wurde die Akkumulation von ^14C-Aminopyrin (^14C-AP) bestimmt (3). Hierzu wurden Proben von 1 ml Drüsenschlauchsuspension mit ^14C-AP (1 µM, 200 000 cpm) und der zu testenden Verbindung inkubiert und für 20 - 30 min bei 37°C in einem schüttelnden Wasserbad behandelt. Anschließend wurden Histamin (100 µM), dbcAMP (0.3 oder 1 mM) oder Carbachol (100 µM) zugegeben, gefolgt von einer zweiten Inkubationsdauer von 30 - 45 min.. Die Inkubation wurde anschließend beendet durch Zentrifugiren der Proben für eine halbe Minute. Die überstehende Flüssigkeit wurde entfernt und die erhaltenen pellets in 1 ml NaOH gelöst. Proben der Pellets und des Flüssigkeitsüberstands wurden im Szintillationszähler gemessen. Das AP-Verhältnis der intraglandulären und extraglandulären Radioaktivität wurde nach Sack und Spenney (4) berechnet. Alle Bestimmungen wurden dreifach durchgeführt.

Molecules are shown by their SMILES. pIC50: −log10 of the molar value. Like-named read-outs stand apart in the source and are kept apart here.

Usually pIC50 stands for the negative decadic logarithm of the IC50, by convention in mol/L.

In the case of `CCS(=O)(=O)N(C)[C@@H]1c2cc(C#N)ccc2OC(C)(C)[C@H]1O` (relative stereo) [293B, trans-6-Cyano-4-(N-ethylsulfonyl-N-methylamino)-3-hydroxy-2,2-dimethyl-chroman], the pIC50 is, setting by setting: (after Carbachol stimulation (100 µM)) 5.30; (after Histamin stimulation (100 µM)) 4.70; (after dbcAMP stimulation (0.3 or 1 mM)) 4.70.

These data come from patent publication EP0807629B1, “Sulfonamido substituted chromane derivatives, method for their preparation, their use as medicaments or diagnostic agents aswell as medicaments containing them” (Aventis Pharma Deutschland GmbH, priority 1996, dated 1997).
